{
  "source": "patent US20240076347A1",
  "about": "“METHODS FOR PREVENTING FUNGAL INFECTIONS” (Cidara Therapeutics, Inc., priority 2016, published 2024)",
  "key": {"C. albicans strain 529L": {"tested_on": "C. albicans strain 529L", "assay": "Rat model of vulvovaginal candidiasis, vaginal lavage and tissue burden", "assay_type": "in vivo, Candida albicans", "protocol": "Animal Strain. Wistar rats were supplied by Harlan Laboratories UK and were specific pathogen free. Rats weighed […] at the time of surgery. Ovariectomies were performed. Rats were allowed 4-7 days recovery before transportation to the facility where the experiment was to be performed. Following arrival, rats were allowed at least 4 days acclimatization before start of the experiment. Rats weighed 100-120 g at the time of ovariectomy and were about 300 g at start of the experiment.\nPre-conditioning. Female Wistar rats underwent ovariectomy at least 10 days prior to the study commencing. They were further pre-conditioned by treatment with 5 mg/kg 17-β-estradiol administered subcutaneously (SC) every other day on Days −7, −5, −3 and −1 prior to infection with C. albicans strain 529. Estradiol treatment continued every other day throughout the study to 7 days post-infection.\nYeast Isolate. Candida albicans strain 529L was used in this chronic rat vaginal infection model.\nInfection. Yeast strains were inoculated aerobically onto Sabouraud dextrose agar media (SAB) containing 0.05 mg/mL chloramphenicol and incubated at 30° C. for 48-72 h. 18-24 h prior to infection, Yeast Peptone Dextrose (YPD) broths were inoculated with 2-3 isolated colonies from agar plates and incubated overnight (37° C. on an orbital shaker). Broths containing C. albicans strain 529L were washed 3 times with sterile phosphate buffered saline (PBS) before dilution to the correct inoculum for infection. Cell counts were determined using a haemocytometer and confirmed by quantitative culture on Sabouraud dextrose agar.\nRats were infected with 0.1 mL by intravaginal administration under inhaled isoflurane anaesthesia using about 9.8×10^5 CFU/mL (9.8×10^4 CFU/Rat) C. albicans strain 529L\nTreatment. […] The fluconazole treatment also started at 24 h post infection but was administered by the PO route at the dose volume and frequency shown in Table 7. The study design is further outlined in FIG. 19.\n(§1) Reduction in weight and general loss of condition due to estradiol treatment are also typical in this rat model. Colonization with C. albicans was determined by quantitative culture of daily vaginal lavage samples. Rats were euthanized 9 days post infection and C. albicans determined by quantitative culture of vaginal tissue (including uterine horns).\nLavage samples were obtained on Days 1 (pre-treatment), 2, 3, 5, 7, and 9 days post infection by flushing rat vaginas 4 times with 0.1 mL pre-warmed sterile PBS. Following euthanasia, vaginal tissue including uterine horns was removed prior to weighing. Tissues were homogenized in 2 mL sterile PBS using a bead-beater. Vaginal wash and tissue homogenates were diluted appropriately then quantitatively cultured on to Sabouraud dextrose agar containing 0.05 mg/mL chloramphenicol and incubated at 37° C. for up to 72 h before being counted.\nStatistical analysis. Data were analyzed using StatsDirect software (version 2.7.8) using the non-parametric Kruskal-Wallis test and if this was statistically significant all pairwise comparisons were analyzed (Conover-Inman)."}, "[1]": {"assay": "Monkey pharmacokinetics, SC and IV administration", "assay_type": "in vivo, cynomolgus monkeys", "conditions": "for half-life / AUC(0-t) / Cmax / Tmax / AUC(0-inf): cynomolgus monkey, plasma", "protocol": "Therefore, only local tolerability (and PK) of CD101 by SC administration required evaluation. […] Plasma concentrations were then quantified by liquid chromatography with tandem mass spectrometric detection (LC-MS/MS). Bioavailability from SC dosing was calculated by comparing the calculated area under the concentration-time profile (AUC) from SC against the AUC from IV administration of the same dose."}, "[2]": {"assay_type": "in vivo, Wistar rats", "protocol": "Endpoints. The rats were monitored at a frequency appropriate for their clinical condition. Rat weights were recorded at least once daily to ensure animals remained within ethical limits.\nas §1"}, "[3]": {"conditions": "lavage Day 8 post treatment (Day 9 post infection), 5 mg/kg SC dosed twice"}, "[4]": {"conditions": "lavage Day 8 post treatment (Day 9 post infection), 10 mg/kg SC dosed once"}, "[5]": {"conditions": "terminal vaginal tissue (vagina, uterus, uterine horns) Day +9 post infection, 5 mg/kg SC dosed once"}, "[6]": {"conditions": "terminal vaginal tissue Day +9 post infection, 5 mg/kg SC dosed twice"}, "[7]": {"conditions": "terminal vaginal tissue Day +9 post infection, 10 mg/kg SC dosed once"}, "[8]": {"conditions": "vaginal lavage Day 1 post infection, pre-treatment, 5 mg/kg SC dosed once group"}, "[9]": {"conditions": "vaginal lavage Day 1 post infection, pre-treatment, 5 mg/kg SC dosed twice group"}, "[10]": {"conditions": "vaginal lavage Day 1 post infection, pre-treatment, 10 mg/kg SC dosed once group"}, "[11]": {"conditions": "both sexes, sc, Subcutaneous, 30 mg/kg"}, "[12]": {"conditions": "female, animal 9707, F, 30 mg/kg SC single dose"}, "[13]": {"conditions": "male, animal 9697, M, 30 mg/kg SC single dose"}},
  "note": "Read-outs that look alike come from different tables or passages of the source. Numbered stars: 1 amine (or outer) side, 2 acyl side, 3 side chain; on linkers, the order of the positions; unused ones are H or OH. Bridge positions count the residues as written; N and C are the ends. Square brackets hold non-standard residues; d marks the D form. Peptide text beside a SMILES is read from it. * marks the point of attachment. ξ: configuration not given here. Orn(4R-OH,5R-OCH2CH2NMe3+) = C[N+](C)(C)CCO[C@@H](N[*:3])[C@H](O)C[C@H](N[*:1])C(=O)[*:2]; pTerphenylCO(4''-OnC5H11) = CCCCCOc1ccc(-c2ccc(-c3ccc(C(=O)*)cc3)cc2)cc1; hTyr(3S-OH,4S-OH) = N[C@H](C(=O)O)[C@H](O)[C@@H](O)c1ccc(O)cc1; X1 = C[C@H]1CN([*:1])C(C(=O)[*:2])C1O; Hyp = O=C(O)[C@@H]1C[C@@H](O)CN1; ξT = CC(O)C(N)C(=O)O",
  "data": [
    {"smiles": "CCCCCOc1ccc(-c2ccc(-c3ccc(C(=O)N[C@H]4C[C@@H](O)[C@@H](OCC[N+](C)(C)C)NC(=O)C5C(O)[C@@H](C)CN5C(=O)[C@H]([C@@H](C)O)NC(=O)[C@H]([C@H](O)[C@@H](O)c5ccc(O)cc5)NC(=O)[C@@H]5C[C@@H](O)CN5C(=O)C(C(C)O)NC4=O)cc3)cc2)cc1", "note": "(stereo partly drawn) [CD101] ({pTerphenylCO(4''-OnC5H11)}-[Orn(4R-OH,5R-OCH2CH2NMe3+)][ξT][Hyp][hTyr(3S-OH,4S-OH)]T[X1]; lactam 1-C)", "values": [
      {"measurement": "Log reduction from vehicle control", "setting": "C. albicans strain 529L; lavage Day 8 post treatment (Day 9 post infection), 5 mg/kg SC dosed once", "value": 0.64, "unit": "CFU/mL"},
      {"measurement": "Group Geometric mean", "setting": "C. albicans strain 529L; [3]", "value": "1.28 × 10^3 CFU/mL"},
      {"measurement": "Log Group Geometric mean", "setting": "C. albicans strain 529L; [3]", "value": 3.11, "unit": "CFU/mL"},
      {"measurement": "Log reduction from vehicle control", "setting": "C. albicans strain 529L; [3]", "value": 1.19, "unit": "CFU/mL"},
      {"measurement": "Group Geometric mean", "setting": "C. albicans strain 529L; [4]", "value": 2.75, "unit": "CFU/mL"},
      {"measurement": "Log Group Geometric mean", "setting": "C. albicans strain 529L; [4]", "value": 0.44, "unit": "CFU/mL"},
      {"measurement": "Log reduction from vehicle control", "setting": "C. albicans strain 529L; [4]", "value": 3.86, "unit": "CFU/mL"},
      {"measurement": "Group Geometric mean", "setting": "C. albicans strain 529L; [5]", "value": "1.37 × 10^5 CFU/g"},
      {"measurement": "Log Group Geometric mean", "setting": "C. albicans strain 529L; [5]", "value": 5.14, "unit": "CFU/g"},
      {"measurement": "Log reduction from vehicle control", "setting": "C. albicans strain 529L; [5]", "value": 0.36, "unit": "CFU/g"},
      {"measurement": "Group Geometric mean", "setting": "C. albicans strain 529L; [6]", "value": "4.00 × 10^4 CFU/g"},
      {"measurement": "Log Group Geometric mean", "setting": "C. albicans strain 529L; [6]", "value": 4.60, "unit": "CFU/g"},
      {"measurement": "Log reduction from vehicle control", "setting": "C. albicans strain 529L; [6]", "value": 0.89, "unit": "CFU/g"},
      {"measurement": "Group Geometric mean", "setting": "C. albicans strain 529L; [7]", "value": 5.52, "unit": "CFU/g"},
      {"measurement": "Log Group Geometric mean", "setting": "C. albicans strain 529L; [7]", "value": 0.74, "unit": "CFU/g"},
      {"measurement": "Log reduction from vehicle control", "setting": "C. albicans strain 529L; [7]", "value": 4.75, "unit": "CFU/g"},
      {"measurement": "Group Geometric mean", "setting": "C. albicans strain 529L; [8]", "value": "9.11 × 10^2 CFU/mL"},
      {"measurement": "Log Group Geometric mean", "setting": "C. albicans strain 529L; [8]", "value": 2.96, "unit": "CFU/mL"},
      {"measurement": "Log reduction from vehicle control", "setting": "C. albicans strain 529L; [8]", "value": "−0.52", "unit": "CFU/mL"},
      {"measurement": "Group Geometric mean", "setting": "C. albicans strain 529L; [9]", "value": "1.83 × 10^3 CFU/mL"},
      {"measurement": "Log Group Geometric mean", "setting": "C. albicans strain 529L; [9]", "value": 3.26, "unit": "CFU/mL"},
      {"measurement": "Log reduction from vehicle control", "setting": "C. albicans strain 529L; [9]", "value": "−0.83", "unit": "CFU/mL"},
      {"measurement": "Group Geometric mean", "setting": "C. albicans strain 529L; [10]", "value": "3.68 × 10^2 CFU/mL"},
      {"measurement": "Log Group Geometric mean", "setting": "C. albicans strain 529L; [10]", "value": 2.57, "unit": "CFU/mL"},
      {"measurement": "Log reduction from vehicle control", "setting": "C. albicans strain 529L; [10]", "value": "−0.13", "unit": "CFU/mL"},
      {"measurement": "time at which maximum plasma concentration was reached", "setting": "[1]; 30 mg/kg SC", "value": "> 24", "unit": "h"},
      {"measurement": "bioavailability (SC vs IV total exposure over 10 days)", "setting": "[1]; 30 mg/kg SC vs IV", "value": 80, "unit": "%"},
      {"measurement": "half-life", "setting": "[1]; both sexes, sc, 30 mg/kg, Subcutaneous", "value": "~124", "unit": "h"},
      {"measurement": "AUC(0-t)", "setting": "[1]; [11]", "value": 2460, "unit": "µg·h/mL"},
      {"measurement": "Cmax", "setting": "[1]; [11]", "value": 13400, "unit": "ng/mL"},
      {"measurement": "Tmax", "setting": "[1]; [11]", "value": 72, "unit": "h"},
      {"measurement": "AUC(0-inf)", "setting": "[1]; both sexes, sc, Subcutaneous, 30 mg/kg, read-out: AUCinf", "value": 3520, "unit": "µg·h/mL"},
      {"measurement": "AUC(0-t)", "setting": "[1]; iv, 30 mg/kg", "value": 3140, "unit": "µg·h/mL"},
      {"measurement": "Cmax", "setting": "[1]; iv, 30 mg/kg", "value": 112000, "unit": "ng/mL"},
      {"measurement": "Tmax", "setting": "[1]; iv, 30 mg/kg", "value": 1, "unit": "h"},
      {"measurement": "half-life", "setting": "[1]; iv, 30 mg/kg", "value": 49.7, "unit": "h"},
      {"measurement": "AUC(0-inf)", "setting": "[1]; iv, 30 mg/kg, read-out: AUCinf", "value": 3340, "unit": "µg·h/mL"},
      {"measurement": "half-life", "setting": "[1]; female, sc, 30 mg/kg, animal 9707, F, 30 mg/kg SC single dose", "value": 171, "unit": "h"},
      {"measurement": "AUC(0-t)", "setting": "[1]; [12]", "value": 2180, "unit": "µg·h/mL"},
      {"measurement": "Cmax", "setting": "[1]; [12]", "value": 10900, "unit": "ng/mL"},
      {"measurement": "Tmax", "setting": "[1]; [12]", "value": 48, "unit": "h"},
      {"measurement": "AUC(0-inf)", "setting": "[1]; female, animal 9707, F, 30 mg/kg SC single dose, read-out: AUCINF_obs", "value": 3760, "unit": "µg·h/mL"},
      {"measurement": "half-life", "setting": "[1]; male, sc, 30 mg/kg, animal 9697, M, 30 mg/kg SC single dose", "value": 76.2, "unit": "h"},
      {"measurement": "AUC(0-t)", "setting": "[1]; [13]", "value": 2740, "unit": "µg·h/mL"},
      {"measurement": "Cmax", "setting": "[1]; [13]", "value": 15900, "unit": "ng/mL"},
      {"measurement": "Tmax", "setting": "[1]; [13]", "value": 96, "unit": "h"},
      {"measurement": "AUC(0-inf)", "setting": "[1]; male, animal 9697, M, 30 mg/kg SC single dose, read-out: AUCINF_obs", "value": 3280, "unit": "µg·h/mL"},
      {"measurement": "tolerability", "setting": "[2]; all treatment doses and durations", "value": "well tolerated with no adverse events observed"},
      {"measurement": "weight loss", "setting": "[2]; ovariectomised, estradiol-treated rats", "value": "did not seem to be exacerbated"}
    ]}
  ]
}
